In brackets after ≈: the same amount, converted by molar mass. Read-outs that look alike come from different tables or passages of the source.
What was measured:
HBV = details: read-out: IC50 against HBV; cited from earlier work
CHIKV = details: read-out: EC50 against CHIKV; cited from earlier work
FMDV serotype A (NP05) [1] = assay: microbe, parasite or virus in culture; format: cell-based, Foot-and-mouth disease virus
FMDV serotype A (NP05) [2] = assay: microbe, parasite or virus in culture; format: cell-based; details: Foot-and-mouth disease virus, BHK-21, read-out: Post-viral entry EC50
FMDV serotype A (NP05) [3] = assay: microbe, parasite or virus in culture; format: cell-based; details: Foot-and-mouth disease virus, BHK-21, read-out: Prophylactic EC50
FMDV serotype A (NP05) [4] = format: cell-based, Foot-and-mouth disease virus
FMDV serotype A (NP05) [5] = assay: microbe, parasite or virus in culture; format: cell-based, Foot-and-mouth disease virus; remark: listed apart in the source
FMDV serotype A (NP05) [6] = format: cell-based, Foot-and-mouth disease virus; remark: listed apart in the source
FMDV serotype A (NP05) [7] = format: cell-based, Foot-and-mouth disease virus; remark: listed apart in the source
FMDV 3Dpol = format: cell-based, Foot-and-mouth disease virus
HCoV-OC43 = details: read-out: EC50 against HCoV-OC43; cited from earlier work
HCoV-NL63 = details: read-out: EC50 against HCoV-NL63; cited from earlier work
MERS-CoV = details: read-out: EC50 against MERS-CoV; cited from earlier work
MHV-A59 = details: read-out: EC50 against MHV-A59; cited from earlier work
SARS-CoV-2 = details: read-out: EC50 against SARS-CoV-2; cited from earlier work
EBOV = details: read-out: IC50 (viral-like particle entry); cited from earlier work
ZIKV NS5 RNA polymerase = details: read-out: IC50 (NS5 polymerase inhibition); cited from earlier work
enterovirus (EV) A71 = details: read-out: EC50 against enterovirus (EV) A71; cited from earlier work
[8] = system: HIV reverse transcriptase; details: cited from earlier work
Influenza virus H1N1 = details: cited from earlier work
Influenza virus type A = details: cited from earlier work
RSV = details: cited from earlier work
[9] = system: papain-like protease 2 protein; details: read-out: IC50 (papain-like protease 2 protein inhibition); cited from earlier work
FMDV serotype A = details: cited from earlier work
RdRp = details: read-out: Binding affinity (RdRp inhibition using surface plasmon resonance assay); cited from earlier work
[10] = Foot-and-mouth disease virus, BHK-21, read-out: Pre-viral entry EC50
[11] = Foot-and-mouth disease virus, BHK-21, read-out: Penetration EC50

In the case of `C[C@@H]1CC[C@@]2(NC1)O[C@H]1C[C@H]3[C@@H]4CC=C5C[C@@H](O[C@@H]6O[C@H](CO)[C@@H](O[C@@H]7O[C@@H](C)[C@H](O)[C@@H](O)[C@H]7O)[C@H](O)[C@H]6O[C@@H]6O[C@@H](C)[C@H](O)[C@@H](O)[C@H]6O)CC[C@]5(C)[C@H]4CC[C@]3(C)[C@H]1[C@@H]2C` [Solamargine (SLG), Solamargine], the IC50 (HBV) is listed as 2170 nM.

In the case of `C[C@H]1CC[C@]2(NC1)O[C@H]1C[C@H]3[C@@H]4CC[C@H]5C[C@@H](O)CC[C@]5(C)[C@H]4CC[C@]3(C)[C@H]1[C@@H]2C` [Tomatidine (TMD), Tomatidine], the EC50 (CHIKV) is listed as 1300 nM.

`CC[C@H]1CN2CCc3cc(OC)c(OC)cc3[C@@H]2C[C@@H]1C[C@H]1NCCc2cc(OC)c(OC)cc21` [EMT, Emetine, reference compound] gave an EC50 (FMDV serotype A (NP05) [1]; [10]) of 130 nM, an EC50 (FMDV serotype A (NP05) [2]) of 240 ± 630 nM and an EC50 (FMDV serotype A (NP05) [3]) of 640 ± 200 nM. For the same compound, the “Effect on viral attachment (binding of FMDV)” value (FMDV serotype A (NP05) [4]) was “neither CPL nor EMT impeded the binding of FMDV”, the EC50 (FMDV serotype A (NP05) [5]; [11]) was 120 nM and the “% Virucidal effect (Virus titre reduction of log TCID50/ml), Low dose” value (FMDV serotype A (NP05) [6]) was 32.28%. For the same compound, the “log viral titre after treatment, high dose” value (FMDV serotype A (NP05) [6]) was 2.16, the “log viral titre after treatment, low dose” value (FMDV serotype A (NP05) [6]) was 2.14 and the “Viral load reduction (viral copy numbers)” value (FMDV serotype A (NP05) [7]) was “dose-dependent manner”. For the same compound, the “Negative-stranded RNA production” value (FMDV 3Dpol) was “affected the production of negative-stranded RNA”, the EC50 (HCoV-OC43) was 300 nM and the EC50 (HCoV-NL63) was 1430 nM. For the same compound, the EC50 (MERS-CoV) was 340 nM, the EC50 (MHV-A59) was 120 nM and the EC50 (SARS-CoV-2) was 7.71 nM. The IC50 (EBOV) was 10200 nM, the IC50 (ZIKV NS5 RNA polymerase) was 121 nM and the EC50 (enterovirus (EV) A71) was 40 nM. The “Reduction of HIV reverse transcriptase activity” value [8] was “approximately 50%”.

For `CCOC(=O)/C=C/[C@H](C[C@@H]1CCNC1=O)NC(=O)[C@@H](CC(=O)[C@@H](NC(=O)c1cc(C)on1)C(C)C)Cc1ccc(F)cc1` [RPV, Rupintrivir], the EC50 (FMDV serotype A (NP05) [1]; read-out: Pre-viral entry EC50) was 10400 ± 1020 nM, the EC50 (FMDV serotype A (NP05) [2]) was 3430 ± 540 nM and the EC50 (FMDV serotype A (NP05) [5]; read-out: Penetration EC50) was 2060 ± 310 nM.

In the case of `C/C=C1/CN2[C@@H]3C[C@@]45c6ccccc6N[C@]4(O3)[C@@H]2C[C@@H]1[C@H]5C(=O)OC` [Picrinine (PCN), Picrinine], the “Reduction of haemagglutination titres” value (Influenza virus H1N1) is listed as “Reduction of haemagglutination titres at 1/480; 12.5 mg/kg of Alstonia scholaris (L.) crude extract”.

In the case of Strictosamide [Strictosamide (STM)], the “IC50 against influenza virus type A” value (Influenza virus type A) is listed as “IC50 of 25.68 µg/ml in MDCK cells IC50 of 12.50 µg/ml in Hep-2 cells” and the “IC50 against RSV” value (RSV) is listed as “IC50 of 25.68 µg/ml in MDCK cells IC50 of 12.50 µg/ml in Hep-2 cells”.

In the case of `O=C1c2ccccc2-n2c1nc1ccccc1c2=O` [Tryptanthrin (TTT), Tryptanthrin], the IC50 [9] is given as 60 nM.

For `NC(=O)c1ncc[nH]c1=O` [T-1105], the “IC50 against FMDV serotype A” value (FMDV serotype A) is given as 1.11 µg/mL (≈ 7.98 µM) and the IC50 (FMDV serotype A; read-out: IC50 against FMDV serotype A) is given as 7970 nM.

In the case of `C[C@H]1[C@H]2CC[C@H]3[C@@H]4CC=C5C[C@@H](N(C)C)CC[C@]5(C)[C@H]4CC[C@]23CN1C` [Conessine (CNS), Conessine], the EC50 (HCoV-OC43) is listed as 2340 nM, the EC50 (HCoV-NL63) is listed as 10700 nM and the EC50 (MERS-CoV) is listed as 4980 nM. For the same compound, the EC50 (MHV-A59) was 11500 nM.

`CC[C@H]1CN2CCc3cc(OC)c(OC)cc3[C@@H]2C[C@@H]1C[C@H]1NCCc2cc(O)c(OC)cc21` [CPL, Cephaeline] gave an EC50 (FMDV serotype A (NP05) [1]; [10]) of 100 ± 100 nM, an EC50 (FMDV serotype A (NP05) [2]) of 50 ± 130 nM and an EC50 (FMDV serotype A (NP05) [3]) of 230 ± 650 nM. For the same compound, the “Effect on viral attachment (binding of FMDV)” value (FMDV serotype A (NP05) [4]) was “neither CPL nor EMT impeded the binding of FMDV”, the EC50 (FMDV serotype A (NP05) [5]; [11]) was 50 nM and the “% Virucidal effect (Virus titre reduction of log TCID50/ml), High dose” value (FMDV serotype A (NP05) [6]) was 79.59%. The “% Virucidal effect (Virus titre reduction of log TCID50/ml), Low dose” value (FMDV serotype A (NP05) [6]) was 68.35%, the “log viral titre after treatment, high dose” value (FMDV serotype A (NP05) [6]) was 1.00 and the “log viral titre after treatment, low dose” value (FMDV serotype A (NP05) [6]) was 1.00. The “Viral load reduction (viral copy numbers)” value (FMDV serotype A (NP05) [7]) was “dose-dependent manner”, the “Negative-stranded RNA production” value (FMDV 3Dpol) was “affected the production of negative-stranded RNA” and the EC50 (SARS-CoV-2) was 12.3 nM. For the same compound, the Kd (RdRp) was 8900 nM.

From PMC11445910 (International Journal of Veterinary Science and Medicine, 2024)
